Patent publication US9688695B2, “Imidazothiadiazole and imidazopyrazine derivatives as protease activated receptor 4 (PAR4) inhibitors for treating platelet aggregation” (BRISTOL-MYERS SQUIBB COMPANY, priority 2012, dated 2017)

These molecules were tested against PAR4 (Homo sapiens (Human), UniProt Q96RI0) (assay: FLIPR assay in PAR4-expressing HEK293 cells (PAR4 antagonist activity, calcium mobilization)). Conditions: H-Ala-Phe(4-F)-Pro-Gly-Trp-Leu-Val-Lys-Asn-Gly-NH2-induced calcium mobilization.
Type: cell-based
Text: The FLIPR assay is an exemplary in vitro assay for measuring the activity of the PAR4 antagonists of the present invention. In this assay, intracellular calcium mobilization is induced in PAR4 expressing cells by a PAR4 agonist and calcium mobilization is monitored. See, e.g., Example A.
HEK293 cells stably expressing PAR4 were generated by a standard method of transfection of human […] cDNA expression vector or by RAGE technology from Athersys Inc. (Cleveland, Ohio) and selected based on PAR4 protein expression of mRNA expression. […] These cells express endogenous PAR1 and can elicit calcium signal upon stimulation with PAR1 agonist peptide.
Counter screens for agonist activity and PAR1 antagonist activity were also performed. Briefly, HEK293 EBNA PAR4 clone 20664.1J cells were plated 24 hrs. prior to experiment in 384 well, Poly-D-Lysine coated, black, clear bottom plates (Greiner Bio-One, Monroe, N.C.). Cells were plated at 20,000 cells/well in […] growth medium and incubated at 37° C. with 5% CO2 overnight. At time of assay, media was replaced with 40 μl 1× Hank's Buffered Saline Solution (HBSS) (with 10 mM HEPES) and 20 μl test compound also diluted in 1×HBSS buffer was added at various concentrations and 0.67% DMSO final concentration on the FDSS for agonist measurement. The cells were then incubated for 30 minutes at room temperature followed by addition of 20 μl of agonist peptide for antagonist measurement on the FDSS.
As indicated above, the FLIPR assay, an in vitro assay, measures the PAR4 antagonist activity of compounds tested as described in Example A. The PRP assay, an in vitro assay, measures the PAR4 antagonist assay of the compounds tested in the presence of plasma proteins and thrombin agonist as described in Example C.

Chain of PAR4 (Q96RI0 18-385): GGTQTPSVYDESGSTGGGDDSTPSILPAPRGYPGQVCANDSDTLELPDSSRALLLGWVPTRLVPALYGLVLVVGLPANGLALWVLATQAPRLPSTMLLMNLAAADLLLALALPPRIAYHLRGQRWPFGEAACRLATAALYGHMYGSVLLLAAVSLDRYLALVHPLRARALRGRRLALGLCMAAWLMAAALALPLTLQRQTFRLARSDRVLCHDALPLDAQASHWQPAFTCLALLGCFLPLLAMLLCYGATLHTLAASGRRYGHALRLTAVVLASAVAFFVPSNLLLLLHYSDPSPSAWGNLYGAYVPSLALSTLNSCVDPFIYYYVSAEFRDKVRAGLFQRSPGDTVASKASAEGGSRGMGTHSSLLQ

Compared with `COc1cc(OCc2csc(-c3cccc(C)c3)n2)c2cc(-c3cn4nc(OC)sc4n3)oc2c1` [Example 12], `COc1cc(OCc2csc(-c3cccc(F)c3)n2)c2cc(-c3cn4nc(OC)sc4n3)oc2c1` [Example 25] is 2.4-fold lower in EC50: 1.3 nM for the first, 0.55 nM for the second.

Going from `COc1cc(OCc2nc(-c3ccccc3)sc2C)c2cc(-c3cn4nc(OC)sc4n3)oc2c1` [Example 13] to `COc1cc(OCc2nc(-c3ccccc3)sc2Cl)c2cc(-c3cn4nc(OC)sc4n3)oc2c1` [Example 85, 6-(4-((5-Chloro-2-phenylthiazol-4-yl)methoxy)-6-methoxybenzofuran-2-yl)-2-methoxyimidazo[2,1-b][1,3,4]thiadiazole], the EC50 falls from 2.1 nM to 1.1 nM (1.9-fold). The second is the more potent here.

Going from `COc1cc(OCc2csc(-c3ccc(F)cc3)n2)c2cc(-c3cn4nc(OC)sc4n3)oc2c1` [Example 15] to `COc1cc(OCc2csc(-c3ccc(Cl)cc3)n2)c2cc(-c3cn4nc(OC)sc4n3)oc2c1` [Example 27], the EC50 rises from 0.98 nM to 1.6 nM (1.6-fold). The first is the more potent here.

Going from `COc1cc(OCc2csc(-c3ccccc3Cl)n2)c2cc(-c3cn4nc(OC)sc4n3)oc2c1` [Example 16] to `COc1cc(OCc2csc(-c3ccccc3F)n2)c2cc(-c3cn4nc(OC)sc4n3)oc2c1` [Example 26], the EC50 falls from 3.4 nM to 1.8 nM (1.9-fold). The second is the more potent here.

Compared with `COc1cc(OCc2csc(-c3cccc(C(F)(F)F)c3)n2)c2cc(-c3cn4nc(OC)sc4n3)oc2c1` [Example 17], `COc1cc(OCc2csc(-c3cccc(O)c3)n2)c2cc(-c3cn4nc(OC)sc4n3)oc2c1` [Example 63] is 1.7-fold lower in EC50: 1.1 nM for the first, 0.63 nM for the second.

Going from `COc1cc(OCc2csc(-c3ccccc3OC)n2)c2cc(-c3cn4nc(OC)sc4n3)oc2c1` [Example 19] to `COc1cc(OCc2csc(-c3cccnc3F)n2)c2cc(-c3cn4nc(OC)sc4n3)oc2c1` [Example 78], the EC50 falls from 1 nM to 0.4 nM (2.5-fold).

`COc1cc(OCc2csc(C3CCCCC3)n2)c2cc(-c3cn4nc(OC)sc4n3)oc2c1` [Example 20] and `COc1cc(OCc2csc(Br)n2)c2cc(-c3cn4nc(OC)sc4n3)oc2c1` [Example 35] are within 1.5-fold of each other in EC50: 1.1 nM for the first, 1.3 nM for the second.

First: COc1cc(OCc2csc(-c3ccc(F)cc3F)n2)c2cc(-c3cn4nc(OC)sc4n3)oc2c1 [Example 24]
Second: COc1cc(OCc2csc(-c3cccc(C#N)c3)n2)c2cc(-c3cn4nc(OC)sc4n3)oc2c1 [Example 61]
The EC50 of the first is 1.7-fold higher: 1.1 nM for the first, 0.64 nM for the second.

First: COc1cc(OCc2csc(-c3ccc(OC(F)(F)F)cc3)n2)c2cc(-c3cn4nc(OC)sc4n3)oc2c1 [Example 29]
Second: COc1cc(OCc2csc(-c3ccc(C#N)cc3)n2)c2cc(-c3cn4nc(OC)sc4n3)oc2c1 [Example 64]
The EC50 of the first is 1.6-fold lower: 1.4 nM for the first, 2.3 nM for the second. The first is the more potent here.

Compared with `COc1cc(OCc2csc(-c3cccnc3)n2)c2cc(-c3cn4nc(OC)sc4n3)oc2c1` [Example 30], `COc1cc(OCc2csc(-c3cnccn3)n2)c2cc(-c3cn4nc(OC)sc4n3)oc2c1` [Example 32] is 2-fold higher in EC50: 0.65 nM for the first, 1.3 nM for the second.

`COc1cc(OCc2csc(N3CCC(F)(F)CC3)n2)c2cc(-c3cn4nc(OC)sc4n3)oc2c1` [Example 31] and `COc1cc(OCc2csc(N3CCSCC3)n2)c2cc(-c3cn4nc(OC)sc4n3)oc2c1` [Example 53] are within 1.5-fold of each other in EC50: 0.59 nM for the first, 0.52 nM for the second.

Compared with `COC(=O)c1ccc(-c2nc(COc3cc(OC)cc4oc(-c5cn6nc(OC)sc6n5)cc34)cs2)cc1` [Example 37, Methyl 4-(4-(((6-methoxy-2-(2-methoxyimidazo[2,1-b][1,3,4]thiadiazol-6-yl)benzofuran-4-yl)oxy)methyl)thiazol-2-yl)benzoate], `COc1cc(OCc2csc(-c3ccc(C(=O)NC(C)(C)C)cc3)n2)c2cc(-c3cn4nc(OC)sc4n3)oc2c1` [Example 41, N-(tert-Butyl)-4-(4-(((6-methoxy-2-(2-methoxyimidazo[2,1-b][1,3,4]thiadiazol-6-yl)benzofuran-4-yl)oxy)methyl)thiazol-2-yl)benzamide] is 2-fold higher in EC50: 0.45 nM for the first, 0.9 nM for the second. The first is the more potent here.

First: COc1cc(OCc2nc(-c3ccc(C(=O)N(C)C)cc3)sc2C(C)C)c2cc(-c3cn4nc(OC)sc4n3)oc2c1 [Example 42, 4-(5-Isopropyl-4-(((6-methoxy-2-(2-methoxyimidazo[2,1-b][1,3,4]thiadiazol-6-yl)benzofuran-4-yl)oxy)methyl)thiazol-2-yl)-N,N-dimethylbenzamide]
Second: COc1cc(OCc2nc(-c3ccc(C(=O)N(C)C)cc3)sc2C)c2cc(-c3cn4nc(OC)sc4n3)oc2c1 [Example 66]
The EC50 of the first is 3.3-fold higher: 2.5 nM for the first, 0.75 nM for the second.

`COc1cc(OCc2nc(-c3ccnc(F)c3)sc2C(C)C)c2cc(-c3cn4nc(OC)sc4n3)oc2c1` [Example 43, 6-(4-((2-(2-Fluoropyridin-4-yl)-5-isopropylthiazol-4-yl)methoxy)-6-methoxybenzofuran-2-yl)-2-methoxyimidazo[2,1-b][1,3,4]thiadiazole] and `COc1cc(OCc2nc(-c3ccnc(F)c3)sc2C)c2cc(-c3cn4nc(OC)sc4n3)oc2c1` [Example 71] are within 1.5-fold of each other in EC50: 0.34 nM for the first, 0.46 nM for the second.

Compared with `COc1cc(OCc2nc(-c3ccc(C(=O)OC(C)(C)C)cc3)sc2C)c2cc(-c3cn4nc(OC)sc4n3)oc2c1` [Example 45, tert-Butyl 4-(4-(((6-methoxy-2-(2-methoxyimidazo[2,1-b][1,3,4]thiadiazol-6-yl)benzofuran-4-yl)oxy)methyl)-5-methylthiazol-2-yl)benzoate], `COc1cc(OCc2nc(-c3ccc(C(=O)O)cc3)sc2C)c2cc(-c3cn4nc(OC)sc4n3)oc2c1` [Example 46, 4-(4-(((6-Methoxy-2-(2-methoxyimidazo[2,1-b][1,3,4]thiadiazol-6-yl)benzofuran-4-yl)oxy)methyl)-5-methylthiazol-2-yl)benzoic acid] is 1.8-fold higher in EC50: 1.3 nM for the first, 2.4 nM for the second.

`COc1cc(OCc2nc(-c3ccc(C(=O)NCC(F)(F)F)cc3)sc2C)c2cc(-c3cn4nc(OC)sc4n3)oc2c1` [Example 47, 4-(4-(((6-Methoxy-2-(2-methoxyimidazo[2,1-b][1,3,4]thiadiazol-6-yl)benzofuran-4-yl)oxy)methyl)-5-methylthiazol-2-yl)-N-(2,2,2-trifluoroethyl)benzamide] and `CNC(=O)c1ccc(-c2nc(COc3cc(OC)cc4oc(-c5cn6nc(OC)sc6n5)cc34)c(C)s2)cc1` [Example 49, 4-(4-(((6-Methoxy-2-(2-methoxyimidazo[2,1-b][1,3,4]thiadiazol-6-yl)benzofuran-4-yl)oxy)methyl)-5-methylthiazol-2-yl)-N-methylbenzamide] are within 1.5-fold of each other in EC50: 0.77 nM for the first, 0.82 nM for the second.

Compared with `COc1cc(OCc2csc(CC(C)C)n2)c2cc(-c3cn4nc(OC)sc4n3)oc2c1` [Example 50], `COc1cc(OCc2csc(CCC3CC3)n2)c2cc(-c3cn4nc(OC)sc4n3)oc2c1` [Example 60] is 1.8-fold higher in EC50: 0.21 nM for the first, 0.38 nM for the second. The first is the more potent here.

Compared with `COc1cc(OCc2csc(N3C[C@@H](C)O[C@@H](C)C3)n2)c2cc(-c3cn4nc(OC)sc4n3)oc2c1` [Example 51], `COc1cc(OCc2csc(N3CC[S+]([O-])CC3)n2)c2cc(-c3cn4nc(OC)sc4n3)oc2c1` [Example 55] is 3-fold higher in EC50: 0.26 nM for the first, 0.79 nM for the second.

Compared with `COc1cc(OCc2csc(N3CCS(=O)(=O)CC3)n2)c2cc(-c3cn4nc(OC)sc4n3)oc2c1` [Example 54], `COc1cc(OCc2nc(N3CCOCC3)sc2Cl)c2cc(-c3cn4nc(OC)sc4n3)oc2c1` [Example 84] is 2.7-fold higher in EC50: 0.36 nM for the first, 0.97 nM for the second. The first is the more potent here.

`COc1cc(OCc2csc(-c3ccc4c(c3)OCO4)n2)c2cc(-c3cn4nc(OC)sc4n3)oc2c1` [Example 57] and `COc1cc(OCc2csc(-c3cccc(OC(C)=O)c3)n2)c2cc(-c3cn4nc(OC)sc4n3)oc2c1` [Example 62] are within 1.5-fold of each other in EC50: 0.67 nM for the first, 0.48 nM for the second.

Compared with `COc1cc(OCc2csc(CCC(F)(F)F)n2)c2cc(-c3cn4nc(OC)sc4n3)oc2c1` [Example 58], `COc1cc(OCc2csc(-c3cccnc3)n2)c2cc(-c3cn4nc(OC)sc4n3)oc2c1` [Example 82] is 2-fold higher in EC50: 0.33 nM for the first, 0.67 nM for the second.

First: COc1cc(OCc2csc(-c3ccc(COC(C)=O)cc3)n2)c2cc(-c3cn4nc(OC)sc4n3)oc2c1 [Example 68]
Second: COc1cc(OCc2csc(-c3ccc(CO)cc3)n2)c2cc(-c3cn4nc(OC)sc4n3)oc2c1 [Example 69]
The EC50 of the first is 2.1-fold higher: 0.49 nM for the first, 0.23 nM for the second.

Going from `COc1cc(OCc2nc(-c3ccc(C(N)=O)cc3)sc2C)c2cc(-c3cn4nc(OC)sc4n3)oc2c1` [Example 70] to `COc1cc(OCc2nc(-c3cccc(COC(C)=O)c3)sc2C)c2cc(-c3cn4nc(OC)sc4n3)oc2c1` [Example 76], the EC50 falls from 0.89 nM to 0.42 nM (2.1-fold).

First: COc1cncc(-c2nc(COc3cc(OC)cc4oc(-c5cn6nc(OC)sc6n5)cc34)cs2)c1 [Example 79]
Second: COc1cc(OC(C)c2csc(-c3ccccc3)n2)c2cc(-c3cn4nc(OC)sc4n3)oc2c1 (stereo not shown) [Example 83, 2-Methoxy-6-(6-methoxy-4-(1-(2-phenylthiazol-4-yl)ethoxy)benzofuran-2-yl)imidazo[2,1-b][1,3,4]thiadiazole]
The EC50 of the first is 2.4-fold higher: 2.6 nM for the first, 1.1 nM for the second. The second is the more potent here.

`COc1cc(OCc2nc(N3CCOCC3)sc2C=O)c2cc(-c3cn4nc(OC)sc4n3)oc2c1` [Example 88, 4-(((6-Methoxy-2-(2-methoxyimidazo[2,1-b][1,3,4]thiadiazol-6-yl)benzofuran-4-yl)oxy)methyl)-2-morpholinothiazole-5-carbaldehyde] was tested, and the EC50 was 2.9 nM.
